In test [1] the target is T1, N-terminal GST tagged full length human TTK kinase (Homo sapiens, UniProt P33981).
T1 construct: N-terminal GST tagged full length human TTK kinase; GST (N); made in house; host or cells: insect cells
T1 sequence (P33981 1-857): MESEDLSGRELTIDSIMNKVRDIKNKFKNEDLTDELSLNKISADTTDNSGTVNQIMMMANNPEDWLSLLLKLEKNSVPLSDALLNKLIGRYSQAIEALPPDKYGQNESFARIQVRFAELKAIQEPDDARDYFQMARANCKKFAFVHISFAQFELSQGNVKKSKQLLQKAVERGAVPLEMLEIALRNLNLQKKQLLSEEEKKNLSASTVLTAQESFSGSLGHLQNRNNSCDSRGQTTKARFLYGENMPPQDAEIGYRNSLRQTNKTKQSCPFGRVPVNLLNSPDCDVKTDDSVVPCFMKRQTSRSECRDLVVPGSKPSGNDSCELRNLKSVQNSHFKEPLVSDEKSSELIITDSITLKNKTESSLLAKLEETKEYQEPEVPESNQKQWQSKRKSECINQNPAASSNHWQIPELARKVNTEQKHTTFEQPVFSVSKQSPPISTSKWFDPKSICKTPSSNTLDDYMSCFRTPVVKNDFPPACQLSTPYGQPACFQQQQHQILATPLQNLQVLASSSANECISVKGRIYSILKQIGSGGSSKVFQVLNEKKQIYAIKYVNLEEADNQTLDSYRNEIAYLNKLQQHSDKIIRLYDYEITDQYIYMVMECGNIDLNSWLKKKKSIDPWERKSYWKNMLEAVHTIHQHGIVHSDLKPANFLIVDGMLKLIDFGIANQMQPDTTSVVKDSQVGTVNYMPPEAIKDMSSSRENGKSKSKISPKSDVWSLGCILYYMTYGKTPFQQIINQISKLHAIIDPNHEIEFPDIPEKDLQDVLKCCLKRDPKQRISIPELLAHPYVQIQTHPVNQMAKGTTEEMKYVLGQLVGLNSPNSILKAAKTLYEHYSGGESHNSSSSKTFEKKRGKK
Put plainly: In Vitro TTK Kinase Assay 1 (AlphaScreen). It counts as biochemical. Conditions: recombinant TTK, 10 μM ATP, read-out: EAA: Enzyme Assay Activity (In Vitro TTK kinase assay 1). The procedure:
Aliquots (2 μL) of each compound dilution were placed into wells of a Greiner 384-well low volume white polystyrene plate (Greiner Bio-one).
The resultant signals arising from laser light excitation at 680 nm were read using a Packard Envision instrument.

Test [2] concerns the target T1, N-terminal GST tagged full length human TTK kinase. Kind of test: In Vitro TTK Kinase Assay 2 (Caliper LabChip LC3000). The test is classed as biochemical. To be noted: recombinant TTK, 12 μM ATP, read-out: EAA2: Enzyme Assay Activity (In Vitro TTK kinase assay 2). The procedure: Each reaction was stopped by the addition of EDTA to a concentration of 40 mM in a solution which also comprised 0.1% coating reagent (Caliper LS), 100 mM HEPES pH 7.5, 0.015% v/v Brij™-35 and 5% DMSO. The stopped enzyme reactions were sipped through capillaries onto a Caliper chip where the peptide substrate and phosphorylated product were separated and detected via laser-induced fluorescence.

Our source for the IC50 values is US20110118238A1, “2-ANILINOPURIN-8-ONES AS INHIBITORS OF TTK/MPS1 FOR THE TREATMENT OF PROLIFERATIVE DISORDERS” (ASTRAZENECA AB, priority 2007, published 2011).

Turning to `CCOc1cc(N2CCCN(C)CC2)ccc1Nc1ncc2c(n1)n(C1CCCC1)c(=O)n2C` [Example 21, 9-Cyclopentyl-2-{[2-ethoxy-4-(4-methyl-1,4-diazepan-1-yl)-phenyl]amino}-7-methyl-7,9-dihydro-8H-purin-8-one], the values for the IC50 in test [1] and in test [2] were 0.384 µM and 0.0473 µM, respectively.
Taken in the same sequence, the figures for `CN1CCN(c2ccc(Nc3ncc4c(n3)n(C3CCCC3)c(=O)n4C)c(Cl)c2)CC1` [Example 18, 2-{[2-Chloro-4-(4-methylpiperazin-1-yl)phenyl]amino}-9-cyclopentyl-7-methyl-7,9-dihydro-8H-purin-8-one] were 0.249 µM and 0.0148 µM.
For the compound `CCn1c(=O)n(C2CCCC2)c2nc(Nc3ccc(S(C)(=O)=O)cc3OC)ncc21` [Example 32, 9-Cyclopentyl-7-ethyl-2-{[2-methoxy-4-(methylsulfonyl)-phenyl]-amino}-7,9-dihydro-8H-purin-8-one], the IC50 was found to be 1.33 µM in test [1] and 0.0245 µM in test [2].
Taken in the same sequence, the figures for `COc1cc(OC2CCN(C)C2)ccc1Nc1ncc2c(n1)n(C1CCCC1)c(=O)n2C` (stereo not drawn) [Example 24, 9-Cyclopentyl-2-({2-methoxy-4-[(1-methylpyrrolidin-3-yl)-oxy]-phenyl}amino)-7-methyl-7,9-dihydro-8H-purin-8-one] were 0.151 µM and 0.0173 µM.
Taken in the same sequence, the figures for `COc1cc(N2CCN(C)CC2)ccc1Nc1ncc2c(n1)n(C1CCCC1)c(=O)n2CC#N` [Example 36, (9-Cyclopentyl-2-{[2-methoxy-4-(4-methylpiperazin-1-yl)-phenyl]-amino}-8-oxo-8,9-dihydro-7H-purin-7-yl)acetonitrile] were 0.217 µM and 0.0216 µM.
Taken in the same sequence, the figures for `COc1cc(C(=O)N2CCCC2)ccc1Nc1ncc2c(n1)n(C1CCCC1)c(=O)n2C` [Example 10, 9-Cyclopentyl-2-{[2-methoxy-4-(pyrrolidin-1-ylcarbonyl)-phenyl]amino}-7-methyl-7,9-dihydro-8H-purin-8-one] were 1.05 µM and 0.0194 µM.
For the compound `CN1CCC(NC(=O)c2ccc(Nc3ncc4c(n3)n(C3CCCC3)c(=O)n4C)cc2F)CC1` [Example 8, 4-[(9-Cyclopentyl-7-methyl-8-oxo-8,9-dihydro-7H-purin-2-yl)-amino]-2-fluoro-N-(1-methylpiperidin-4-yl)benzamide], the values for the IC50 in test [1] and in test [2] were 3.91 µM and 0.633 µM, respectively.
For `CNC(=O)c1ccc(Nc2ncc3c(n2)n(C2CCCC2)c(=O)n3C)c(OC)c1` [Example 9, 4-[(9-Cyclopentyl-7-methyl-8-oxo-8,9-dihydro-7H-purin-2-yl)amino]-3-methoxy-N-methylbenzamide] the same measures were 0.328 µM and 0.0322 µM.
For the compound `CN1C2CCCC1CC(NC(=O)c1ccc(Nc3ncc4c(n3)n(C3CCCC3)c(=O)n4C)c(F)c1)C2` (stereo not drawn) [Example 16, 4-[(9-Cyclopentyl-7-methyl-8-oxo-8,9-dihydro-7H-purin-2-yl)-amino]-3-fluoro-N-(9-methyl-9-azabicyclo[3.3.1]non-3-yl)-benzamide], the figures for the IC50 in test [1] and in test [2] were 1.68 µM and 0.313 µM, respectively.
Regarding `N#CCn1c(=O)n(C2CCCC2)c2nc(Nc3ccc(S(N)(=O)=O)cc3)ncc21` [Example 38, 4-{[7-(Cyanomethyl)-9-cyclopentyl-8-oxo-8,9-dihydro-7H-purin-2-yl]amino}benzenesulfonamide], the IC50 stood at 1.51 µM in test [1] and 0.131 µM in test [2].
Taken in the same sequence, the figures for `CCn1c(=O)n(C2CCCC2)c2nc(Nc3ccc(OC4CCN(C)CC4)cc3OC)ncc21` [Example 30, 9-Cyclopentyl-7-ethyl-2-({2-methoxy-4-[(1-methylpiperidin-4-yl)-oxy]phenyl}amino)-7,9-dihydro-8H-purin-8-one] were 0.0913 µM and 0.0108 µM.
Taken in the same sequence, the figures for `COc1cc(N2CCN(C)CC2)ccc1Nc1ncc2c(n1)n(C1CCCC1)c(=O)n2C` [Example 4, 9-Cyclopentyl-2-{[2-methoxy-4-(4-methylpiperazin-1-yl)-phenyl]amino}-7-methyl-7,9-dihydro-8H-purin-8-one] were 0.213 µM and 0.0229 µM.
For `COc1cc(C(=O)NC2CC3CCCC(C2)N3C)ccc1Nc1ncc2c(n1)n(C1CCCC1)c(=O)n2C` (stereo not drawn) [Example 14, 4-[(9-Cyclopentyl-7-methyl-8-oxo-8,9-dihydro-7H-purin-2-yl)-amino]-3-methoxy-N-(9-methyl-9-azabicyclo[3.3.1]non-3-yl)benzamide] the same measures were 1.56 µM and 0.0697 µM.
For `Cn1c(=O)n(C2CCCC2)c2nc(Nc3ccc(N4CCS(=O)(=O)CC4)cc3)ncc21` [Example 12, 9-Cyclopentyl-2-{[4-(1,1-dioxidothiomorpholin-4-yl)-phenyl]-amino}-7-methyl-7,9-dihydro-8H-purin-8-one], the IC50 came to 1.17 µM in test [1] and 0.0152 µM in test [2].
For `CCOc1cc(OC2CCN(C)CC2)ccc1Nc1ncc2c(n1)n(C1CCCC1)c(=O)n2C` [Example 26, 9-Cyclopentyl-2-({2-ethoxy-4-[(1-methylpiperidin-4-yl)-oxy]-phenyl}amino)-7-methyl-7,9-dihydro-8H-purin-8-one] the same measures were 0.0509 µM and 0.026 µM.
Taken in the same sequence, the figures for `Cn1c(=O)n(C2CCCC2)c2nc(Nc3ccc(S(N)(=O)=O)cc3)ncc21` [Example 11, 4-[(9-Cyclopentyl-7-methyl-8-oxo-8,9-dihydro-7H-purin-2-yl)-amino]benzenesulfonamide] were 9.65 µM and 0.167 µM.
For `COc1cc(C(=O)NC2CCN(C)CC2)ccc1Nc1ncc2c(n1)n(C1CCCC1)c(=O)n2CC#N` [Example 37, 4-{[7-(Cyanomethyl)-9-cyclopentyl-8-oxo-8,9-dihydro-7H-purin-2-yl]amino}-3-methoxy-N-(1-methylpiperidin-4-yl)-benzamide] the same measures were 0.501 µM and 0.0834 µM.
Take “4-[(9-Cyclopentyl-7-ethyl-8-oxo-8,9-dihydro-7H-purin-2-yl)-amino]-3-methoxy-N-(1-methylpiperidin-4-yl)benzamide [Example 33]”: the IC50 in test [1] was 0.398 µM; in test [2], 0.0382 µM.
As to `CCN1CCC(NC(=O)c2cc(F)c(Nc3ncc4c(n3)n(C3CCCC3)c(=O)n4C)cc2F)CC1` [Example 17, 4-[(9-Cyclopentyl-7-methyl-8-oxo-8,9-dihydro-7H-purin-2-yl)-amino]-N-(1-ethylpiperidin-4-yl)-2,5-difluorobenzamide], the figures for the IC50 in test [1] and in test [2] were 9.24 µM and 2.01 µM, respectively.
For `CCOc1cc(N2CCC(N(C)C)CC2)ccc1Nc1ncc2c(n1)n(C1CCCC1)c(=O)n2C` [Example 23, 9-Cyclopentyl-2-({4-[4-(dimethylamino)piperidin-1-yl]-2-ethoxyphenyl}amino)-7-methyl-7,9-dihydro-8H-purin-8-one] the same measures were 0.703 µM and 0.0756 µM.
Taken in the same sequence, the figures for `Cc1cc(S(N)(=O)=O)ccc1Nc1ncc2c(n1)n(C1CCCC1)c(=O)n2C` [Example 2, 4-[(9-Cyclopentyl-7-methyl-8-oxo-8,9-dihydro-7H-purin-2-yl)-amino]-3-methylbenzenesulfonamide] were 1.28 µM and 0.0166 µM.
